{"source": "patent US20150258052A1", "about": "“METHODS OF USING FEXARAMINE AND AGENTS THAT INCREASE SYMPATHETIC NERVOUS SYSTEM ACTIVITY TO PROMOTE BROWNING OF WHITE ADIPOSE TISSUE” (Salk Institute for Biological Studies, priority 2014, published 2015)", "key": {"human TGR5": {"target": "T1, human TGR5 (Homo sapiens, UniProt Q8TDU6)", "T1 construct": "expressed in transfected cells; host or cells: HEK293", "T1 sequence (Q8TDU6 1-330)": "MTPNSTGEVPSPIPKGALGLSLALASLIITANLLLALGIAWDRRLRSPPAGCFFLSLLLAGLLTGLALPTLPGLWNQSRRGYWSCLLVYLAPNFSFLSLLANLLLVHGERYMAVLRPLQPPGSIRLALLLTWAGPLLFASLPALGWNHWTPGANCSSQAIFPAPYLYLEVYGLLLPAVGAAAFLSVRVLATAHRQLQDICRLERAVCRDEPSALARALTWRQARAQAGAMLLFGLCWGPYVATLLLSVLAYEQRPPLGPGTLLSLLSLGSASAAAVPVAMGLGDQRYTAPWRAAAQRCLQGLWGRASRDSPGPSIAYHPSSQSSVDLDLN", "assay": "TGR5 cAMP-response element luciferase reporter in HEK293 cells", "type": "cell-based", "conditions": "HEK293 cells transfected with human TGR5, treated 5 hours", "experimental": "HEK293 cells were transfected with expression vectors for cAMP-response element luciferase, β-galactosidase and human TGR5. 24 hours after transfection, cells were treated with fexaramine or INT-777 (a TGR5 agonist)\nat the indicated concentrations for 5 hours, prior to measurement of luciferase activity. Data represent the mean±SD. Statistical analysis was performed with the Student's t test. *p<0.05, **p<0.01."}, "normal chow-fed mice": {"test_system": "normal chow-fed mice", "assay": "Chronic oral fexaramine in normal chow-fed mice", "type": "in vivo", "experimental": "FIGS. 3A-3D are line graphs and a bar graph showing the effects of fexaramine administration in normal chow-fed mice. The mice were treated with vehicle or fexaramine (100 mg/kg) via PO for 5 weeks. Data represent the mean±STD. Statistical analysis as performed with the Student's t test (*p<0.05, **p<0.01).\nTo investigate the physiological effects of intestinal FXR activation by fexaramine, mice were subjected to chronic fexaramine (100 mg/kg Fex) PO treatment for 5 weeks."}, "FXR-null mice": {"test_system": "FXR-null mice", "assay": "Fexaramine in HFD-fed FXR-null mice", "type": "in vivo", "conditions": "100 mg/kg 5 weeks", "experimental": "Data represent the mean±SD. Statistical analysis was performed with the Student's t test. *p<0.05, **p<0.01."}, "TGR5 null mice": {"test_system": "TGR5 null mice", "assay": "Fexaramine in HFD-fed TGR5-null mice", "type": "in vivo", "conditions": "100 mg/kg/day PO 5 weeks", "experimental": "HFD-fed TGR5-null mice were treated with vehicle or fexaramine (100 mg/kg os daily for 5 weeks with HFD, n=10). (A) Ileal FXR target gene expressions (B) Serum BA levels (C) Fasting glucose levels (D) Glucose tolerance test (E) Core body temperature (F) Oxygen consumption rate (G) Carbon dioxide production (H) Gene expression in BAT (I) Body weight curve (J) Body composition by MRI (K) Insulin Tolerance Test (L) Hepatic gene expression (M) Hepatic TG levels (N) and Gene expression in soleus of TGR5 knockout mice with and without fexaramine treatment. Data represent the mean±SD. Statistical analysis was performed with the Student's t test. *p<0.05, **p<0.01.\nTo address this possibility, HFD-fed TGR5 null mice were chronically treated with Fex (100 mg/kg/day PO for 5 weeks). […] In particular, the anti-lipogenic effects of Fex in the liver appear to require TGR5 activation, as key hepatic lipogenic genes and liver triglyceride content were not affected by Fex treatment (FIGS. 11L, 11M)."}, "[1]": {"test_system": "white adipose tissue (WAT)", "assay": "Inflammation, lipolysis and browning of white adipose tissue in Fex-treated DIO mice", "type": "in vivo", "experimental": "Mice were fed on HFD for 14 weeks and subsequently subjected to daily PO injection of vehicle or fexaramine (100 mg/kg) for 5 weeks with HFD. In the bar graphs, open bars are vehicle, solid bars of fexaramine, and data represent the mean±STD. Statistical analysis was performed with the Student's t test (*p<0.05, **p<0.01).\nFIG. 12F is a bar chart showing serum glycerol levels in vehicle or fexaramine-treated mice. Isoproterenol (1 μg/kg) was injected at 0 minutes and free glycerol levels were measured at the indicated time points. Data represent the mean±STD. Statistical analysis was performed with the Student's t test (*p<0.05, **p<0.01).\nMice fed a HFD for 14 weeks were maintained on a HFD and treated with vehicle or fexaramine (100 mg/kg/day os for 5 week). (I) Changes in genes associated with the browning of adipose tissue and (J) oxygen consumption rate of the stromal vascular fraction (SVF) from inguinal fat (iWAT). Data represent the mean±SD. Statistical analysis was performed with the Student's t test. *p<0.05, **p<0.01.\nFIG. 13 is a set of digital images of gel electrophoreses (Western blots) showing the level of expression of various proteins in gonadal white adipose tissue (gWAT). Mice fed a HFD for 14 weeks were maintained on a HFD and treated with vehicle or fexaramine (50 mg or 100 mg/kg/day os for 5 week).\nFIG. 14 is a bar chart showing that fexaramine reduces brown adipose tissue (BAT) inflammation. Mice fed a HFD for 14 weeks were maintained on a HFD and treated with vehicle or fexaramine (100 mg/kg/day os for 5 weeks). Expression of inflammatory cytokines in BAT. Data represent the mean±SD. Statistical analysis was performed with the Student's t test. *p<0.05, **p<0.01.\nDuring obesity, adipose tissue expands by hyperplastic and/or hypertrophic growth, is chronically inflamed, and produces inflammatory cytokines that ultimately contribute to systemic metabolic dysregulation. […] These noncanonical IκB kinases were recently shown to play crucial roles in energy expenditure as a consequence of adipose tissue inflammation upon diet-induced obesity (Reilly et al., Nat Med 19:313-321, 2013).\nBrown adipose-driven adaptive thermogenesis is fueled by mitochondrial oxidation of free fatty acids (FFAs) released from triglyceride stores into the circulation, predominantly by the action of hormone-sensitive lipase (HSL)."}}, "data": [{"smiles": "COC(=O)/C=C/c1cccc(N(Cc2ccc(-c3ccc(N(C)C)cc3)cc2)C(=O)C2CCCCC2)c1", "note": "[Fex, fexaramine]", "values": [{"measurement": "TGR5 activation (luciferase activity)", "setting": "human TGR5", "value": "does not activate"}, {"measurement": "TGR5 activation (luciferase activity)", "setting": "human TGR5; listed as fexaramine", "value": "fails to activate TGR5"}, {"measurement": "weight gain, basal metabolic activity and glucose tolerance", "setting": "normal chow-fed mice; chow-fed mice, 100 mg/kg PO 5 weeks", "value": "indistinguishable from vehicle-treated mice"}, {"measurement": "glucose homeostasis", "setting": "normal chow-fed mice; normal chow-fed mice, range of doses", "value": "no effects observed"}, {"measurement": "Fex-induced changes in gene expression and improvements in metabolic homeostasis", "setting": "FXR-null mice", "value": "abrogated"}, {"measurement": "FXR target genes in ileum including FGF15", "setting": "TGR5 null mice", "value": "induced multiple FXR target genes"}, {"measurement": "core body temperature and metabolic rate", "setting": "TGR5 null mice", "value": "somewhat blunted increases"}, {"measurement": "fasting glucose levels and glucose tolerance", "setting": "TGR5 null mice", "value": "moderate improvements"}, {"measurement": "key hepatic lipogenic genes and liver triglyceride content", "setting": "TGR5 null mice", "value": "not affected"}, {"measurement": "serum BA levels", "setting": "TGR5 null mice", "value": "lowered serum BA levels"}, {"measurement": "weight gain or insulin sensitivity", "setting": "TGR5 null mice", "value": "no significant changes"}, {"measurement": "abundance of multi-locular, UCP1-expressing adipocytes in inguinal adipose tissue (immunohistochemistry)", "setting": "[1]; 100 mg/kg PO 5 weeks", "value": "substantial increase"}, {"measurement": "expression of TNFα, MCP-1, IL-1α and macrophage marker F4/80 in visceral and brown adipose depots", "setting": "[1]; 100 mg/kg PO 5 weeks", "value": "reduced in visceral and brown adipose depots"}, {"measurement": "expression of \"brown fat-like\" signature genes in inguinal adipose tissue", "setting": "[1]; 100 mg/kg/day 5 week", "value": "increased the expression"}, {"measurement": "respiratory capacity (oxygen consumption rate) of stromal vascular fraction from inguinal adipose tissue", "setting": "[1]; 100 mg/kg/day 5 week", "value": "increased respiratory capacity"}, {"measurement": "S6K phosphorylation (mTORC1 pathway) in gonadal WAT", "setting": "[1]; Western blot", "value": "reduced S6K phosphorylation"}, {"measurement": "levels of IKK-ε and TANK-binding kinase 1 (TBK1) in gWAT", "setting": "[1]; Western blot", "value": "reduced levels"}, {"measurement": "HSL phosphorylation in adipose depots", "setting": "[1]; chronic Fex treatment", "value": "pronounced increase"}, {"measurement": "serum catecholamine levels", "setting": "[1]; chronic Fex treatment", "value": "increased serum catecholamine levels"}, {"measurement": "serum levels of free fatty acids", "setting": "[1]; chronic Fex treatment", "value": "pronounced increase"}, {"measurement": "β3-adrenergic receptor expression in gonadal adipose tissue", "setting": "[1]; chronic Fex treatment", "value": "increased"}, {"measurement": "cross-sectional area of adipocytes in visceral depots (gonadal and mesenteric)", "setting": "[1]; chronic Fex-treatment", "value": "markedly reduced"}]}]}
